{
  "source": "patent US20120244619A1",
  "about": "“COMPOSITION FOR PROMOTING DIFFERENTIATION OF PLURIPOTENT STEM CELLS INTO CARDIAC MUSCLE CELLS WHICH COMPRISES NITROVIN” (KYOTO UNIVERSITY, priority 2009, published 2012)",
  "format_in_all_cases": "cell-based",
  "key": {"[1]": {"test_system": "CMK 6.4 cynomolgus monkey ES cells", "assay": "Comparison of nitrovin and cytokines in cardiac muscle cell differentiation of monkey ES cells", "settings": "nitrovin 5 μM day 6-14; cytokines (bFGF, BMP4, VEGF, DKK1, Activin A) day 1-14; read at day 18", "text": "Nitrovin and a mixture of cytokines (bFGF, BMP4, VEGF, DKK1, and Activin A) known as a promoter of cardiac muscle cell differentiation were compared as to increase of GFP fluorescence intensity, number of beating colonies of cardiac muscle cells, and expression of Troponin T, a marker of cardiac muscle cell differentiation.\nAs described in Example 1, a vector expressing green fluorescent protein (GFP) was introduced into monkey ES cell line (CMK 6.4 cynomolgus monkey ES cells). The culture medium was the same as described in Example 1. The monkey ES cells were seeded on 6-well culture plates and nitrovin (final concentration: 5 μM) or a mixture of cytokines (bFGF, BMP4, VEGF, DKK1, and Activin A) (final concentration: 5 ng/ml, 10 ng/ml, 10 ng/ml, 150 ng/ml, and 3 ng/ml, respectively) was added during day 6-14 of culture (nitrovin) or day 1-14 of culture (cytokines)."}, "[2]": {"test_system": "CMK 6.4 cynomolgus monkey ES cells", "assay": "Screening of agents which promote cardiac muscle cell differentiation of monkey ES cells (α-MHC promoter-GFP, HCS)", "settings": "96-well, about 1-5 μM compound/well added day 6-14, read at day 14 of culture", "procedure": "As described in FIG. 1, screening of agents which promote cardiac muscle cell differentiation of monkey ES cells was performed. A vector expressing green fluorescent protein (GFP) under control of a promoter of a-MHC gene, a marker of cardiac muscle cell differentiation, was introduced into monkey ES cell line (CMK 6.4 cynomolgus monkey ES cells) and the cells were seeded on 96-well culture plates (Greiner/655090: 96 well FIA black plate) in 5.0×10^2 cells/well, and cultured for 14 days in a differentiation medium for cardiac muscle cell differentiation (200 ml IMDM (Sigma 13390) containing 50 ml bovine fetal serum (GIBCO 10099-141), 2.5 ml MEM non-essential amino acid solution (Sigma M7145), 2.5 ml penicillin-streptomycin (GIBCO 15140), 2.5 ml 200 mM L-glutamine, 2 μl 2-mercaptoethanol (Sigma M7522), 255 μl 5N NaOH 255 μl). During day 6-14 of culture, 9,600 library compounds were added into separate wells (about 1-5 μM compound/well). Then, at day 14 of culture, GFP expression was determined by using HCS (high contents screening) system (Molecular device/MetaMorph imaging system). As a result, GFP fluorescence intensity was high in the wells added with nitrovin (FIG. 2)."}, "[3]": {"test_system": "human ES cell line (Kh−1)", "assay": "Effect of nitrovin for promoting cardiac muscle cell differentiation of human ES cells", "settings": "nitrovin 1, 5 or 20 μM added at day 6, read at day 18", "procedure": "As described in Example 1, a vector expressing green fluorescent protein (GFP) was introduced into human ES cell line (Kh−1). The human ES cells were seeded and cultured on 6-well culture plates (Asahi Glass/5816-006: Ezview culture plate) in 1.2×10^6 cells/well. The culture medium was the same as described in Example 1. At day 6 of culture, nitrovin was added at a final concentration of 1 μM, 5 μM, or 20 μM. At day 18 of culture, fluorescence intensity of GFP was determined."}, "[4]": {"test_system": "CMK 6.4 cynomolgus monkey ES cells", "assay": "Effect of nitrovin for promoting cardiac muscle cell differentiation of monkey ES cells", "procedure": "As described in Example 1, a vector expressing green fluorescent protein (GFP) was introduced into monkey ES cell line (CMK 6.4 cynomolgus monkey ES cells). The monkey ES cells were seeded and cultured on 6-well culture plates (Asahi Glass/5816-006: Ezview culture plate) in 4.0×10^6 cells/well. The culture medium was the same as described in Example 1. At day 6 of culture, nitrovin was added at a final concentration of 1 μM, 5 μM, or 20 μM. At day 18 of culture, fluorescence intensity of GFP and number of beating colonies of cardiac muscle cells were determined. When nitrovin was added, the fluorescence intensity and number of beating colonies increased up to about 5 times and about 10 times higher, respectively (FIGS. 3-1 and 3-2)."}, "[5]": {"settings": "nitrovin 1, 5 or 20 μM added at day 6, read at day 18, maximal increase vs control (DMSO)"}},
  "data": [
    {"compound": "N=C(N)NN=C(/C=C/c1ccc([N+](=O)[O-])o1)/C=C/c1ccc([N+](=O)[O-])o1", "note": "[nitrovin]", "values": [
      {"measurement": "GFP fluorescence intensity compared to the mixture of cytokines", "setting": "[1]", "value": "highly effective"},
      {"measurement": "expression level of Troponin T compared to the mixture of cytokines", "setting": "[1]", "value": "highly effective"},
      {"measurement": "number of beating colonies compared to the mixture of cytokines", "setting": "[1]", "value": "highly effective"},
      {"measurement": "GFP fluorescence intensity (GFP expression under α-MHC promoter)", "setting": "[2]", "value": "high"},
      {"measurement": "GFP fluorescence intensity", "setting": "[3]", "value": "increase of GFP fluorescence intensity induced by nitrovin was also observed"},
      {"measurement": "most effective final concentration", "setting": "[4]; among 1, 5 and 20 μM, GFP fluorescence intensity and beating colonies at day 18", "value": 5, "unit": "µM"},
      {"measurement": "increase of GFP fluorescence intensity", "setting": "[4]; [5]", "value": "about 5 times"},
      {"measurement": "increase of number of beating colonies of cardiac muscle cells", "setting": "[4]; [5]", "value": "about 10 times"}
    ]}
  ]
}
